Source: ChEMBL document CHEMBL1129028 (J Med Chem, 1996)

Assays:
Mus musculus [1] = assay: Anticonvulsant activity in the subcutaneous metrazole (scMet) screen test expressed as the number of animals protected to the number of animals tested; scMet at 100 mg/kg after 4 hrs; (0/1); format: functional
[2] = Partition coefficient; Kp = concentration of test compound in n-octanol/concentration of the test compound in phosphate buffer (pH 7.4); format: physicochemical
Mus musculus [3] = assay: Anticonvulsant activity in the maximal electroshock (MES) screen test expressed as the number of animals protected to the number of animals tested; MES at 100 mg/kg after 0.5 hrs; (2/2); format: functional
Mus musculus [4] = assay: Anticonvulsant activity in the subcutaneous metrazole (scMet) screen test expressed as the number of animals protected to the number of animals tested; scMet at 100 mg/kg after 0.5 hrs; (1/1); format: functional
Cavia porcellus = species: Cavia porcellus; assay: Calcium channel antagonist activity against carbachol-induced contractile response in guinea pig ileal longitudinal smooth muscle; format: functional
Mus musculus [5] = assay: Anticonvulsant activity in the subcutaneous metrazole (scMet) screen test expressed as the number of animals protected the number of animals tested; scMet at 100 mg/kg after 0.5 hrs; (0/1); format: functional
Mus musculus [6] = assay: Anticonvulsant activity in the subcutaneous metrazole (scMet) screen test expressed as the number of animals protected the number of animals tested; scMet at 100 mg/kg after 4 hrs; (0/1); format: functional
Mus musculus [7] = assay: Anticonvulsant activity in the maximal electroshock (MES) screen test expressed as the number of animals protected the number of animals tested; MES at 300 mg/kg after 0.5 hrs; (0/1); format: functional
Mus musculus [8] = assay: Anticonvulsant activity in the subcutaneous metrazole (scMet) screen test expressed as the number of animals protected the number of animals tested; scMet at 300 mg/kg after 4 hrs; (0/1); format: functional
Mus musculus [9] = assay: Anticonvulsant activity in the maximal electroshock (MES) screen test expressed as the number of animals protected the number of animals tested; MES at 100 mg/kg after 0.5 hrs; (0/3); format: functional
Mus musculus [10] = assay: Anticonvulsant activity in the maximal electroshock (MES) screen test expressed as the number of animals protected the number of animals tested; MES at 300 mg/kg after 4 hrs; (1/1); format: functional
Mus musculus [11] = assay: Anticonvulsant activity in the maximal electroshock (MES) screen test expressed as the number of animals protected the number of animals tested; MES at 100 mg/kg after 4 hrs; (1/3); format: functional
Mus musculus [12] = assay: Anticonvulsant activity in the subcutaneous metrazole (scMet) screen test expressed as the number of animals protected the number of animals tested; scMet at 300 mg/kg after 0.5 hrs; (0/1); format: functional
Mus musculus [13] = assay: Anticonvulsant activity in the maximal electroshock (MES) screen test expressed as the number of animals protected / the number of animals tested; MES at 100 mg/kg after 4 hrs; (2/3); format: functional
Mus musculus [14] = assay: Anticonvulsant activity in the subcutaneous metrazole (scMet) screen test expressed as the number of animals protected / the number of animals tested; scMet at 100 mg/kg after 4 hrs; (0/1); format: functional
Mus musculus [15] = assay: Anticonvulsant activity in the subcutaneous metrazole (scMet) screen test expressed as the number of animals protected / the number of animals tested; scMet at 100 mg/kg after 0.5 hrs; (0/1); format: functional
Mus musculus [16] = assay: Anticonvulsant activity in the maximal electroshock (MES) screen test expressed as the number of animals protected / the number of animals tested; MES at 100 mg/kg after 0.5 hrs; (2/3); format: functional
Mus musculus [17] = assay: Anticonvulsant activity in the maximal electroshock (MES) screen test expressed as the number of animals protected / the number of animals tested; MES at 300 mg/kg after 0.5 hrs; (1/1); format: functional
Mus musculus [18] = assay: Anticonvulsant activity in the subcutaneous metrazole (scMet) screen test expressed as the number of animals protected/ the number of animals tested; scMet at 300 mg/kg after 0.5 hrs; (0/1); format: functional
Mus musculus [19] = assay: Anticonvulsant activity in the maximal electroshock (MES) screen test expressed as the number of animals protected to the number of animals tested; MES at 100 mg/kg after 0.5 hrs; (0/3); format: functional
Mus musculus [20] = assay: Anticonvulsant activity in the maximal electroshock (MES) screen test expressed as the number of animals protected to the number of animals tested; MES at 100 mg/kg after 4 hrs; (1/3); format: functional
Mus musculus [21] = assay: Anticonvulsant activity in the maximal electroshock (MES) screen test expressed as the number of animals protected to the number of animals tested; MES at 300 mg/kg after 0.5 hrs; (0/1); format: functional
Mus musculus [22] = assay: Anticonvulsant activity in the maximal electroshock (MES) screen test expressed as the number of animals protected to the number of animals tested; MES at 300 mg/kg after 4 hrs; (1/1); format: functional
Mus musculus [23] = assay: Anticonvulsant activity in the subcutaneous metrazole (scMet) screen test expressed as the number of animals protected to the number of animals tested; scMet at 300 mg/kg; (0/1); format: functional
Mus musculus [24] = assay: Anticonvulsant activity in the subcutaneous metrazole (scMet) screen test expressed as the number of animals protected to the number of animals tested; scMet at 100 mg/kg after 0.5 hrs; (0/1); format: functional

CO/C(O)=C1\C(C)=NC(C)=C(C(=O)OCCO)C1c1cccc(Cl)c1Cl (stereo unspecified)
No. of animals protected / no animals tested (Mus musculus [1]): 0 | Kp [2]: 236 | No. of animals protected / no animals tested (Mus musculus [3]): 2 | No. of animals protected / no animals tested (Mus musculus [4]): 1 | IC50 (Cavia porcellus): 30.4 nM

CO/C(O)=C1\C(C)=NC(C)=C(C(=O)OCCOC(=O)C2=CN(C)C=CC2)C1c1cccc(Cl)c1Cl (stereo unspecified)
No. of animals protected / no animals tested (Mus musculus [5]): 0 | No. of animals protected / no animals tested (Mus musculus [6]): 0 | No. of animals protected / no animals tested (Mus musculus [7]): 0 | Kp [2]: 366 | No. of animals protected / no animals tested (Mus musculus [8]): 0 | No. of animals protected / no animals tested (Mus musculus [9]): 0 | No. of animals protected / no animals tested (Mus musculus [10]): 1 | IC50 (Cavia porcellus): 31 nM | No. of animals protected / no animals tested (Mus musculus [11]): 1 | No. of animals protected / no animals tested (Mus musculus [12]): 0

CCOC(=O)C1=C(C)NC(C)=C(C(=O)OC)C1c1cccc(Cl)c1Cl (stereo unspecified) [FELODIPINE]
No. of animals protected / no animals tested (Mus musculus [13]): 2 | Kp [2]: 442 | No. of animals protected / no animals tested (Mus musculus [14]): 0 | No. of animals protected / no animals tested (Mus musculus [15]): 0 | No. of animals protected / no animals tested (Mus musculus [16]): 2 | No. of animals protected / no animals tested (Mus musculus [17]): 1 | No. of animals protected / no animals tested (Mus musculus [18]): 0

COCCOC(=O)C1=C(C)NC(C)=C(C(=O)OC(C)C)C1c1cccc([N+](=O)[O-])c1 (stereo unspecified) [NIMODIPINE]
No. of animals protected / no animals tested (Mus musculus [19]): 0 100mg kg-1 | No. of animals protected / no animals tested (Mus musculus [1]): 0 100mg kg-1 | Kp [2]: 187 | No. of animals protected / no animals tested (Mus musculus [20]): 1 100mg kg-1 | No. of animals protected / no animals tested (Mus musculus [21]): 0 300mg kg-1 | No. of animals protected / no animals tested (Mus musculus [22]): 1 300mg kg-1 | IC50 (Cavia porcellus): 14.9 nM | No. of animals protected / no animals tested (Mus musculus [23]): 0 300mg kg-1 | No. of animals protected / no animals tested (Mus musculus [24]): 0 100mg kg-1
